According to US8546381B2, “Bridged heterocyclic compounds and methods of use” (Medivation Technologies, Inc., priority 2008, dated 2013):

Key:
[1] = target: T1, human recombinant adrenergic α2A receptor (Homo sapiens, UniProt P08913); assay: Adrenergic α2A radioligand binding ([3H]MK-912); settings: 1 μM; for inhibition at 1 µM: read-out: Adrenergic α2A, inhibition of ligand binding (1 μM)
T1 construct: expressed in transfected cells; host or cells: insect Sf9 cells
T1 sequence (P08913 1-465): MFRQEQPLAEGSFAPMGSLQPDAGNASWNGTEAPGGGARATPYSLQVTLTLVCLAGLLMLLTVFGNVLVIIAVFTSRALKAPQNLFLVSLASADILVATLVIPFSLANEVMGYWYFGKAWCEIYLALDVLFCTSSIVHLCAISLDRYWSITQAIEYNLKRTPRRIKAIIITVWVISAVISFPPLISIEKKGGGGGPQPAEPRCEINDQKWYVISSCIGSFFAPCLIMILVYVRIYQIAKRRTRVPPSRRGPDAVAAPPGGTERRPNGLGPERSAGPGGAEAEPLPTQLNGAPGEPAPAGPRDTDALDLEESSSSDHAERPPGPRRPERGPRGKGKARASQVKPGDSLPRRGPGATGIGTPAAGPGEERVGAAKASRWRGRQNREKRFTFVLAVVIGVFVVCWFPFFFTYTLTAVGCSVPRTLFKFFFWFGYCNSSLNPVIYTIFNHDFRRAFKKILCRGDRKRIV
Procedure: To evaluate in radioligand binding assays the activity of compounds of the invention, human recombinant adrenergic α2A receptor expressed in insect Sf9 cells (Uhlen S et al. J Pharmacol Exp Ther. 271:1558, 1994) in a modified Tris-HCl buffer (50 mM Tris-HCl, pH 7.4, 12.5 mM MgCl2, 2 mM EDTA) was used. Compounds of invention were incubated with 1 nM [^3H]MK-912 for 60 minutes at 25° C. MK912 is (2S-trans)-1,3,4,5′,6,6′,7,12b-octahydro-1′,3′-dimethyl-spiro[2H-benzofuro[2,3-a]quinolizine-2,4′(1′H) -pyrimidin]-2′(3′H)-one hydrochloride Non-specific binding was estimated in the presence of 10 μM WB-4101 (2-(2,6-Dimethoxyphenoxyethyl)aminomethyl-1,4-benzodioxane hydrochloride). Receptor proteins were filtered and washed, the filters were then counted to determine [^3H]MK-912 specifically bound. Compounds were screened at 1 μM or lower, using 1% DMSO as vehicle. Biochemical assay results are presented as the percent inhibition of specific binding in Table 3.

[2] = target: T2, human recombinant adrenergic α1D receptor (Homo sapiens, UniProt P25100); assay: Adrenergic α1D radioligand binding ([3H]Prozosin); settings: 1 μM; for inhibition at 1 µM: read-out: Adrenergic α1D, inhibition of ligand binding (1 μM)
T2 construct: expressed in transfected cells; host or cells: HEK-293 cells
T2 sequence (P25100 1-572): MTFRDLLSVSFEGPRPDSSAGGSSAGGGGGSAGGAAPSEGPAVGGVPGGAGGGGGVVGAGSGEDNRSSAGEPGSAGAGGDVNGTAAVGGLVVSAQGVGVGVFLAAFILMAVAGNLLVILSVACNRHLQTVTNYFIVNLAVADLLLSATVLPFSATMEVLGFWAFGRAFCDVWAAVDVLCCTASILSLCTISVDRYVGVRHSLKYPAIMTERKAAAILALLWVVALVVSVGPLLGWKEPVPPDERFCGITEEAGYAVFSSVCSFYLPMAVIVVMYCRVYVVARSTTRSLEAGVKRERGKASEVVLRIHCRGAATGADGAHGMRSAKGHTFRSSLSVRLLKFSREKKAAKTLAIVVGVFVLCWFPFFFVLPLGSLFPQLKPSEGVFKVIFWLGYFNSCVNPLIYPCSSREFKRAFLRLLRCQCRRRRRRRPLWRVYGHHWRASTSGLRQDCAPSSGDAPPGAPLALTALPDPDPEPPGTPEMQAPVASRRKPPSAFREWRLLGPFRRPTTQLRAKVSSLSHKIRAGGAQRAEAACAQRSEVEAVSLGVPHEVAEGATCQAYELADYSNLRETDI
Procedure: To evaluate in radioligand binding assays the activity of compounds of the invention, human recombinant adrenergic α1D receptor expressed in human embryonic kidney (HEK-293) cells (Kenny, B. A. et al. Br. J. Pharmacol. 115(6):981, 1995) in a 50 mM Tris-HCl buffer, pH 7.4, was used. Compounds of invention were incubated with 0.6 nM [^3H]Prozosin for 60 minutes at 25° C. Non-specific binding was estimated in the presence of 10 μM phentolamine. Receptor proteins were filtered and washed, the filters were then counted to determine [^3H]Prozosin specifically bound. Compounds were screened at 1 μM or lower, using 1% DMSO as vehicle. Biochemical assay results are presented as the percent inhibition of specific binding in Table 3.

[3] = target: T3, human recombinant adrenergic α2B receptor (Homo sapiens, UniProt P18089); assay: Adrenergic α2B radioligand binding ([3H]Rauwolscine); settings: 1 μM; for inhibition at 1 µM: read-out: Adrenergic α2B, inhibition of ligand binding (1 μM)
T3 construct: expressed in transfected cells; host or cells: CHO-K1 cells
T3 sequence (P18089 1-450): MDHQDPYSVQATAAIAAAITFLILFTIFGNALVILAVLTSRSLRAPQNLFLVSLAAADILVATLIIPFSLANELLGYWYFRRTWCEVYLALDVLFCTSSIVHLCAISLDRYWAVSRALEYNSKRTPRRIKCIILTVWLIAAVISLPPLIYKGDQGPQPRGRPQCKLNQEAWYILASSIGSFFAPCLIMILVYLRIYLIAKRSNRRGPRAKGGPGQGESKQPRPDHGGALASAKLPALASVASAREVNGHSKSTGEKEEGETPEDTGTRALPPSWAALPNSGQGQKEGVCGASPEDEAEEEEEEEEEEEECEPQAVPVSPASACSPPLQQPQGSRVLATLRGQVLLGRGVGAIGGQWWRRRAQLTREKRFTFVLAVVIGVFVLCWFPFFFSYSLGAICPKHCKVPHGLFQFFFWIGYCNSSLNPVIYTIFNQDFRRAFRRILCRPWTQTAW
Procedure: To evaluate in radioligand binding assays the activity of compounds of the invention, human recombinant adrenergic α2B receptor expressed in Chinese hamster ovary (CHO-K1) cells (Uhlen S et al. Eur J. Pharmacol. 343(1):93, 1998) in a modified Tris-HCl buffer (50 mM Tris-HCl, pH 7.4, 12.5 mM MgCl2, 1 mM EDTA, 0.2% BSA) was used. Compounds of the invention were incubated with 2.5 nM [^3H]Rauwolscine for 60 minutes at 25° C. Non-specific binding was estimated in the presence of 10 μM Prozosin. Receptor proteins were filtered and washed, the filters were then counted to determine [^3H]Rauwolscine specifically bound. Compounds were screened at 1 μM or lower, using 1% DMSO as vehicle. Biochemical assay results are presented as the percent inhibition of specific binding in Table 3.

SMILES	Adrenergic α2A, inhibition of ligand binding (1 μM) [1] [%]	inhibition at 1 µM [1] [%]	Adrenergic α1D, inhibition of ligand binding (1 μM) [2] [%]	inhibition at 1 µM [2] [%]	Adrenergic α2B, inhibition of ligand binding (1 μM) [3] [%]	inhibition at 1 µM [3] [%]
Cc1ccc2c(c1)c1c(n2CCc2ccc(C(F)(F)F)nc2)CC2CCC1N2C (stereo not drawn) [Compound 71]	48.0	28	63.0	62	98.0	99
CN1C2CCC1c1c(n(CCC(=O)O)c3ccc(Cl)cc13)C2 (stereo not drawn) [Compound 72]	–	6	–	-9	–	-8
CN1C2CCC1c1c(n(CCC(N)=O)c3ccc(Cl)cc13)C2 (stereo not drawn) [Compound 73]	–	6	–	19	–	73
CN1C2CCC1c1c(n(CCc3ccc(C(F)(F)F)nc3)c3cc(F)c(Cl)cc13)C2 (stereo not drawn) [Compound 77]	–	30	–	37	–	75
Cc1ccc(CCn2c3c(c4cc(Cl)ccc42)C2CCC(C3)N2C)cn1 (stereo not drawn) [Compound 79]	–	14	–	72	–	87
CN1C2CCC1c1c(n(CCc3cccnc3)c3ccc(Cl)cc13)C2 (stereo not drawn) [Compound 80]	–	21	–	54	–	95
Cc1ccc2c(c1)c1c(n2CCc2cnc(C)nc2)CC2CCC1N2C (stereo not drawn) [Compound 81]	–	-5	–	42	–	40
Cc1ncc(CCn2c3c(c4cc(Cl)ccc42)C2CCC(C3)N2C)cn1 (stereo not drawn) [Compound 82]	–	5	–	40	–	47
COc1ccc(CCn2c3c(c4cc(C)ccc42)C2CCC(C3)N2C)cc1 (stereo not drawn) [Compound 83]	–	77	–	80	–	94
COc1ccc(CCn2c3c(c4cc(Cl)ccc42)C2CCC(C3)N2C)cc1 (stereo not drawn) [Compound 84]	–	76	–	19	–	98
Cc1ccc2c(c1)c1c(n2CCCc2ccc(Cl)cc2)CC2CCC1N2C (stereo not drawn) [Compound 85]	–	73	–	43	–	92
Cc1ccc2c(c1)c1c(n2CCc2cccnc2)CC2CCC1N2C (stereo not drawn) [Compound 86]	–	63	–	87	–	106
CN1C2CCC1c1c(n(CCc3cncc(Cl)c3)c3ccc(Cl)cc13)C2 (stereo not drawn) [Compound 87]	–	21	–	70	–	98
Cc1ccc2c(c1)c1c(n2CCc2cncc(Cl)c2)CC2CCC1N2C (stereo not drawn) [Compound 88]	–	32	–	73	–	104
Cc1cncc(CCn2c3c(c4cc(Cl)ccc42)C2CCC(C3)N2C)c1 (stereo not drawn) [Compound 89]	–	5	–	44	–	76
Cc1cncc(CCn2c3c(c4cc(C)ccc42)C2CCC(C3)N2C)c1 (stereo not drawn) [Compound 90]	–	26	–	40	–	75
Cc1ccc2c(c1)c1c(n2CC(O)c2ccc(C)nc2)CC2CCC1N2C (stereo not drawn) [Compound 91]	–	29	–	24	–	67
Cc1ccc(CCn2c3c(c4ccccc42)C2CCC(C3)N2C)cn1 (stereo not drawn) [Compound 92]	–	15	–	8	–	34
Cc1ccc2c(c1)c1c(n2CC(=O)N2CCCCC2)CC2CCC1N2C (stereo not drawn) [Compound 93]	–	4	–	-18	–	-6
CN1[C@@H]2CC[C@H]1c1c(n(CCc3ccc(F)cc3)c3ccc(F)cc13)C2 [Compound 94, (+)-(7S,10R)-2-Fluoro-5-(4-fluorophenethyl)-11-methyl-5,6,7,8,9,10-hexahydro-7,10-iminocyclohept[b]indole]	–	56	–	77	–	102
CN1[C@H]2CC[C@@H]1c1c(n(CCc3ccc(F)cc3)c3ccc(F)cc13)C2 [Compound 95, (−)-(7R,10S)-2-Fluoro-5-(4-fluorophenethyl)-11-methyl-5,6,7,8,9,10-hexahydro-7,10-iminocyclohept[b]indole]	–	65	–	82	–	36
CN1[C@@H]2CC[C@H]1c1c(n(CCc3ccc(C(F)(F)F)nc3)c3ccccc13)C2 [Compound 97]	–	26	–	19	–	103
CN1[C@@H]2CC[C@H]1c1c(n(CC(C)(O)c3ccc(F)cc3)c3ccccc13)C2 (stereo partly drawn) [Compound 99]	–	25	–	20	–	92
CN1[C@@H]2CC[C@H]1c1c(n(CC(=O)N3CCCCC3)c3ccccc13)C2 [Compound 101]	–	18	–	74	–	76
Cc1ccc(CCn2c3c(c4ccccc42)[C@@H]2CC[C@H](C3)N2C)cn1 [Compound 102]	–	4	–	1	–	42
Cc1ccc2c(c1)c1c(n2CCC#N)CC2CCC1N2C (stereo not drawn) [Compound 103]	–	57	–	86	–	94
CN1C2CCC1c1c(n(CCC#N)c3ccc(Cl)cc13)C2 (stereo not drawn) [Compound 107]	–	42	–	47	–	57
CN1C2CCC1c1c(n(CC(=O)c3ccccc3)c3ccc(Cl)cc13)C2 (stereo not drawn) [Compound 110]	–	48	–	40	–	92
CN1C2CCC1c1c(n(CC(=O)c3ccc(Cl)cc3)c3ccc(Cl)cc13)C2 (stereo not drawn) [Compound 111]	–	89	–	40	–	96
